Laboratory results published in patent US20110009332A1, “Therapeutic Treatment Of Wounds” (SOUTHWEST RESEARCH INSTITUTE, priority 2009, published 2011).
Where “and” joins values, the source holds several entries; their conditions need not be identical. Identical values can stand only once. Where a SMILES comes first, the peptide text is derived from it. The star is where a group is joined. Cbz = O=C(OCc1ccccc1)*; OtBu = CC(C)(C)O*

Tests used:
[1] = system: TGF-β1 protein expression in human dermal fibroblast cells; assay: TGF-β1 protein expression in normal and PMA-challenged human dermal fibroblasts; type: cell-based; conditions: PS-1 0 nM to 10000 nM
Description: Cyto-toxicity analysis was performed to illustrate the inhibition of TGF-131 in human dermal fibroblasts. Both normal human dermal fibroblast cells (i.e., undamaged or non-wounded skin cells) and challenged (damaged) human dermal fibroblast cells were treated with concentrations of PS-1 ranging from 0 nM to 10000 nM and the effect of the various PS-1 concentrations on the normal and challenged cells was measured. It is noted that the challenged human dermal fibroblast cells were treated in vitro with 10 nM of phorbol 12-myristate 13-acetate (PMA) to simulate wounding. […] FIG. 11 illustrates TGF-131 protein expression upon addition of PS-1 in cells challenged by the addition of the 10 nM of PMA.

[2] = system: incisional wounds of Sprague-Dawley rats; assay: Incisional wound healing model: histology; type: in vivo; conditions: for Overall Dermal Collagen Response: histology score; for wounds presenting with some degree of epithelial hyperplasia: control rats 60%
Excerpt: (§1) Using a standard incisional wound healing model, two 6 cm linear incisions were made through the panniculus carnosum on the dorsal aspect of 10 to 12 week old male Sprague-Dawley rats 1 centimeter on either side of midline running cephalid to caudal using a prefabricated template. Three surgical clips were used to close the incision and serve as guides for sectioning on harvest day.
(§2) Rats were randomly assigned to 1 of 3 treatment groups, indentified by the treatment administered to the wound located on the left. All wounds located on the right, regardless of treatment group, received vehicle (100% DMSO) as a control. […] Treatment was administered by applying 100 micro liters into (at time of closure) or onto the wound every 24 hours for the first 48 hours beginning at the time of wound closure, totaling 3 doses per wound.
(§3) On days 7, 14 and 28 post-wounding, the rats were euthanized and the entire dorsal skin excised. Four 8 mm sample strips were cut perpendicular to the wounds, to incorporate both the treated wound and the adjacent vehicle wound. The sample strips were then cut in half, equidistance from the two parallel wounds, yielding a total of four samples per wound, and yielding a compliment vehicle wound for each treated sample. One cephalic and one caudle sample were immediately prepared for histology, with the remaining two strips immediately prepared for tensometry.
Histological samples were fixed in 10% formalin, routinely processed, embedded in paraffin, and sectioned at approximately 5 μm. Cross sections of skin were stained with hematoxylin and eosin (H&E) and Masson's Trichrome using routine methods. All slides were subjectively evaluated on an Olympus BX40 microscope (Olympus America, Center Valley, Pa.) by a board-certified veterinary pathologist blinded to the treatment groups. The following parameters were determined for each sample: (1) collagen density (0=no mature collagen, 1=loose, 2=intermediate, 3=dense); (2) collagen maturity (1=immature, 2=intermediate, 3=mature); (3) amount and type of inflammation present in the dermis (0=none, 1=minimal, 2=mild, 3=moderate, 4=severe); (4) epithelial hyperplasia (0=none, 1=minimal, 2=mild, 3=moderate, 4=severe); (5) amount of epidermal necrosis over wound (0=0%, 1=25%, 2=50%, 3=75%, 4=100). Images were captured using an Olympus BX41 microscope (Olympus America, Center Valley, Pa.) and an Olympus DP71 digital camera (Olympus America, Center Valley, Pa.). Captured images of Masson's Trichrome sections under a 4× objective were uploaded into ImageJ (NIH) in order to calculate the cross sectional area of immature collagen within day 28 wounds. For statistical purposes, samples were averaged to provide a single score in each parameter per wound.
(§4) A paired student's t-test was used for statistical comparisons between adjacent wounds. A tukey's comparison was used for statistical comparison of wounds between different rats. A Kruskal-Wallis test was used for comparing graded histology. A Chi square was used to determine statistical meaning of epithelial necrosis.

[3] = system: rat skin; assay: Tensile strength of rat skin after 28 days of treatment (Example 2); type: in vivo, rats; design: Tensile strength of rat skin, Mean: unit not given here; conditions: for Tensile strength of rat skin, individual samples: 100 μl per wound site daily for 5 days, samples 1-5, in N/mm²; for Tensile strength of rat skin, individual samples / Tensile strength of rat skin, Mean: after 28 days; for Tensile strength of rat skin, Mean: control mean 3.12114
Description: Testing of PS-1 was performed in rats and was provided at 1% and 5% in DMSO. The rats received 100 μl per wound site. The compound was administered daily for 5 days and skin was collected at 7 days, 14 days and 28 days. The biomechanical tensile strength of the skin was measured. Table 2 illustrates the testing data after 28 days for a control sample without treatment, 1% PS-1 in DMSO and 5% PS-1 in DMSO.

[4] = system: incisional wounds of Sprague-Dawley rats; assay: Incisional wound healing model: tensometry and wound thickness; type: in vivo
Excerpt: as §1, §2, §3
Prior to sample loading for testing by tensometry, the underlying subcutaneous fascia was removed to the level of the panniculus carnosum using sharp dissection, following a natural dissection plane. For the day 28 wounds, the 8 mm samples were divided into 4 mm strips prior to loading secondary to slippage issues encountered during the pilot study. Samples were loaded into a Lloyd Instrument materials testing system (model LRX plus, Fareham, Hampshire, UK) with a 50 N load cell, with the wounds perpendicular to the grips and pulled at a rate of 200 mm/min. Wound thickness, just superficial to epithelium and just deep to panniculus carnosum, was measured at the time of testing with digital calipers (Absolute Digimatic Caliper, Mitutoyo, Kawasaki, Kanagawa, Japan). The wound width was measured at a preload of 0.5N by obtaining the correlating still frame image from a hands free mounted video camera (HDR-SR1 Handycam® camcorder, Sony, San Diego, Calif.). These two measurements were then used to calculate the cross sectional area of the wounds and the subsequent tensile strength (N/mm^2).
as §4

`CC[C@H](C)[C@H](NC(=O)OCc1ccccc1)C(=O)N[C@@H](CCC(=O)OC(C)(C)C)C(=O)N[C@@H](C)C(=O)N[C@H](C=O)CC(C)C` [PS-1, Z-Ile-Glu(OBu^t)-Ala-Leu-H] (Cbz-IE(OtBu)AL-aldehyde) was tested, and the “TGF-β1 protein expression (in words)” value ([1]; cells challenged with 10 nM PMA, FIG. 11) was “reduced TGF-β1 protein expression to similar levels seen in normal cells”, the “TGF-β1 protein expression (in words)” value ([1]; normal human dermal fibroblast cells, FIG. 10) was “relatively little change in TGF-β1 protein expression” and the “Overall Dermal Collagen Response” value ([2]; PS-1 1% treated wounds, Day 7, control 0.8 ± 0.3) was 0.8 ± 0.3. The “Overall Dermal Collagen Response” value ([2]; PS-1 1% treated wounds, Day 14, control 1.9 ± 0.3) was 2.1 ± 0.3, the “Overall Dermal Collagen Response” value ([2]; PS-1 1% treated wounds, Day 28, control 2.6 ± 0.5) was 2.9 ± 0.3 and the “Overall Dermal Collagen Response” value ([2]; PS-1 5% treated wounds, Day 7, control 0.8 ± 0.3) was 0.7 ± 0.3. The “Overall Dermal Collagen Response” value ([2]; PS-1 5% treated wounds, Day 14, control 1.9 ± 0.3) was 2.0 ± 0.0, the “Overall Dermal Collagen Response” value ([2]; PS-1 5% treated wounds, Day 28, control 2.6 ± 0.5) was 2.8 ± 0.3 and the “accumulation of neutrophils in the dermis (in words)” value ([2]; day 14, most notable in rats receiving 1% PI) was “nearly extinct”. The “wounds presenting with some degree of epithelial hyperplasia” value ([2]; day 28, 1% PI rats) was 8 % of wounds, the “wounds presenting with some degree of epithelial hyperplasia” value ([2]; day 28, 5% PI rats) was 20 % of wounds and the “macrophage and lymphocyte accumulates (in words)” value ([2]; day 28, most notably low dose rat wounds, FIG. 20) was “continued to decline”. For the same compound, the “histology finding in the subcutaneous tissue beneath the panniculus carnosum (in words)” value ([2]; wounds receiving direct administration of the PI, seemingly dose dependent) was “foreign body reaction”, the “Tensile strength of rat skin, individual samples” value ([3]; 1% PS-1 in DMSO) was 3.707 and 3.47 and 3.655 and 4.169 and 4.476 and the “Tensile strength of rat skin, Mean” value ([3]; 1% PS-1 in DMSO) was 3.895. The “Tensile strength of rat skin, individual samples” value ([3]; 5% PS-1 in DMSO) was 4.067 and 4.379 and 3.805 and 5.042 and 5.192, the “strength of rat skin tissue (in words)” value ([3]; 5% PS-1 in DMSO, 28 days, FIG. 6) was “relatively stronger tissue” and the “Tensile strength of rat skin, Mean” value ([3]; 5% PS-1 in DMSO) was 4.497. The “normalization of wound thickness (in words)” value ([4]; after PS-1 treatment) was “normalized faster”, the “tensile strength vs untreated wounds (in words)” value ([4]; day 7 post-wounding, high dose (5% w/w in DMSO), p=0.0223) was “significantly lower” and the “tensile strength vs untreated wounds (in words)” value ([4]; day 7 post-wounding, low dose (1% w/w in DMSO), p=0.0121) was “significantly lower”. For the same compound, the “tensile strength, differences between wounds (in words)” value ([4]; day 14 post-wounding, all wounds) was “no significant differences in tensile strength”, the “wound thickness vs untreated control wounds (in words)” value ([4]; day 28, 1% PI, p=0.057) was “thinner than untreated control wounds, but just lacked significance” and the “wound thickness vs untreated control wounds (in words)” value ([4]; day 28, 5% PI, p=0.013) was “significantly thinner”. For the same compound, the “tensile strength vs untreated wounds (in words)” value ([4]; day 28 post-wounding, 1% PI) was “no significant difference” and the “tensile strength vs untreated wounds (in words)” value ([4]; day 28 post-wounding, 5% PI, p=0.0269) was “significantly increased tensile strength”.
